In patent publication US5635379A, “D-2-alkyl-tryptophan and peptides containing same” (Deghenghi; Romano, priority 1990, dated 1997):
Square brackets hold non-standard residues; d marks the D form. Peptide text beside a SMILES is read from it. dTrp(2-Me) = Cc1[nH]c2ccccc2c1C[C@@H](N)C(=O)O

How the values were obtained:
[1] = test system: growth hormone secretion; assay: Growth hormone secretion in young healthy male volunteers; type: in vivo, human; details: young (20-30 years old) healthy male volunteers, various dosages
Description: The effects of HEXARELIN on growth hormone secretion in young (20-30 years old) healthy male volunteers were measured after the administration of various dosages.

[2] = test system: GH release; assay: GH-releasing activity i.v. in male rats anesthetized with ketamine and xilazine; type: in vivo, Sprague Dawley rats
Description: (§1) Male Sprague Dawley rats (Charles River, Calco, Italy) of 2-3 months of age were used. Rats were housed at 22 +2° C., with lighting cycle of 14 h light: 10 h dark (lights on from 06.00 to 20.00 h), at least 10 days before starting the experiments. A standard dry diet and water were available ad libitum.
(§2) Between 09.00-10.00 h rats were anesthetized with ketamine (58 mg/kg, Inoketam, VIRBAC, Milano) and xilazine (12 mg/kg, Rompun, Bayer, Milano). Thirty minutes later, a blood sample ([…]) was withdrawn from the exposed jugular vein, peptides were injected intravenously or subcutaneously, and further blood samples were collected 10, 20 and 30 minutes later.
(§3) Medium and plasma GH was measured by radioimmunoassay using materials supplied by the NIADDK Bethesda, Md. Values were expressed in term of NIASSK-rat-GH-RP-2 standard (potency 2 IU/ml), as ng/ml of medium or plasma.
(§4) The minimum detectable value of rat was 1.0 ng/ml; intra-assay variability was 6%. To avoid inter-assay variation, samples from each experiment were assayed simultaneously.

[3] = test system: GH release; assay: GH-releasing activity s.c. in male rats anesthetized with ketamine and xilazine; type: in vivo, Sprague Dawley rats
Description: as §1, §2, §3, §4

[4] = test system: pituitary cell monolayers; assay: GH-releasing activity in pituitary cell culture (monolayers); type: cell-based, Sprague Dawley rats; details: for GH in medium: 2 hours incubation
Description: as §1
Pituitary tissue used for cell dissociation included only the anterior lobe. Briefly, pituitary glands were collected in sterile F-10 medium and after cutting into small fragments incubated twice (30 minutes each) at 37° C. in F-10 medium containing 6% fetal calf serum and collagenase (2.5 mg/ml) (Boehringer, Mannheim GmbH, Germany). Fragments were then washed in Dulbecco's PBS, Ca^2+ and Mg^2+ free medium and mechanically dissociated. Single cell suspension was planted onto 24-well (2×10^5 cells/well) culture plates. The cells were incubated in F-10 medium supplemented with 10% horse serum, 4% fetal calf serum and gentamycin (25 μg/ml), in a humidified atmosphere of 5% CO2 and 95% air at 37° C.
After 3 days, the medium was removed and the cells washed twice with serum free F-10, then incubated with 1 ml of F-10 containing 0.1% BSA only, or with added various concentrations of synthetic peptides.
After incubation for 2 h at 37° C., media were collected and stored frozen at -20° C. until assayed for measurement of GH content.
as §3, §4

[5] = Hydrophobicity comparison (FIG. 12); type: physicochemical
[6] = Acute cardiovascular toxicity in the rat, single i.v. dose, mortality; type: in vivo; details: for Dead rats/Total N° of rats per group: observed up to 4 hours
Description: These two peptides were also tested for acute cardiovascular toxicity in the rat.
Dosages were calculated on the basis of the declared peptide content in each product, as specified below:
A single dose of HEXARELIN or GHRP-6 was administered to rats in different calendar dates in such a way that each group/dose should be treated in two subsequent days.
For each compound, appropriate amounts of solutions in 0.9% NaCl for injection were prepared just before treatment at the suitable concentrations. The solutions were sterilized by filtration (Millipore filter, pore size 0.22 μm). Owing to the type of the study (acute study) in which formulates were administered just after preparation, stability checks were not performed. Concentration checks were also not performed. The volume of solution injected was maintained constant at 1 ml/Kg.
The intravenous injections were done as a single dose in one vein of the tail with an appropriately gauged sterile, disposable, plastic syringe. The injection rate was about 0.1 ml/sec.
Periodical observations were made up to 4 hours after treatment. Abnormality and mortality were recorded. Body weight was recorded once during pre-trial and on the administration day to calculate the volumes to be injected.

[7] = test system: Growth Hormone release; assay: GH release in 10-day old rats after subcutaneous injection; type: in vivo; details: s.c. 160 μg/kg
Description: The peptides of Examples 4 and 5 were tested as Growth Hormone releasers in rats. GH released in a series of seven 10-day old rats, injected subcutaneously with a standard dose of 160 μg/kg and sacrificed 15 minutes after the injection.

[8] = test system: GH release; assay: GH response in conscious, freely-moving rats after antiserum pretreatment and i.v. peptide; type: in vivo
Description: Sixty male rats were prepared with indwelling venous catheters under ether anesthesia three days before experimentation. On the day of experimentation, all animals were given an iv heparin injection (100 IU; 0630 h). At 0700 h, animals were treated with 0.5 ml of either normal serum (control-as), somatostatin antiserum (somatostatin-as; 0.25 ml+0.25 ml saline), growth hormone-releasing hormone antiserum (GHRH-as; 0.25 ml+0.25 ml saline), or both somatostatin antiserum and growth hormone-releasing hormone antiserum (0.25 ml somatostatin-as+0.25 ml GHRH-as). Blood sampling began […] after antiserum pretreatment, with blood samples collected every 20 minutes for three hours. After the 180 minute sample (1100 h), animals were treated iv with 25 μg/kg of either Hexarelin or GHRP-6. Blood samples were then collected at 5, 10, 15, 20 30, 40, and 60 minutes after peptide treatment. All samples were centrifuged immediately and the plasma frozen until assayed. The peak GH response to Hexarelin and GHRP-6 as well as the area under the response curves (AUCs) for the thirty minutes following peptide injection were calculated. Data were subjected to repeated measures analysis of variance and are expressed as mean ±SEM.

[9] = i.v. 25 μg/kg peptide, pooled over antiserum pretreatments

Structure (SMILES): Cc1[nH]c2ccccc2c1C[C@@H](NC(=O)[C@@H](N)Cc1cnc[nH]1)C(=O)N[C@@H](C)C(=O)N[C@@H](Cc1c[nH]c2ccccc12)C(=O)N[C@H](Cc1ccccc1)C(=O)N[C@@H](CCCCN)C(N)=O [Example 4, His-D-2-methyl-Trp-Ala-Trp-D-Phe-Lys-NH2] (H-H[dTrp(2-Me)]AW[dF]K-NH2)
- effect on growth hormone secretion [1]: effective in vivo
- plasma GH ([2]; i.v. 150 μg/kg, 10 min): 412.7 ± 39.7 ng/mL
- plasma GH ([2]; i.v. 150 μg/kg, 20 min): 132.2 ± 12.7 ng/mL
- plasma GH ([2]; i.v. 150 μg/kg, 30 min): 44.0 ± 6.0 ng/mL
- plasma GH ([2]; i.v. 150 μg/kg, time 0 min (before injection)): 15.0 ± 2.9 ng/mL
- plasma GH ([2]; i.v. 300 μg/kg, 10 min): 438.5 ± 26.8 ng/mL
- plasma GH ([2]; i.v. 300 μg/kg, 20 min): 213.8 ± 34.2 ng/mL
- plasma GH ([2]; i.v. 300 μg/kg, 30 min): 48.1 ± 8.8 ng/mL
- plasma GH ([2]; i.v. 300 μg/kg, time 0 min (before injection)): 13.5 ± 2.0 ng/mL
- plasma GH ([2]; i.v. 600 μg/kg, 10 min): 478.3 ± 19.8 ng/mL
- plasma GH ([2]; i.v. 600 μg/kg, 20 min): 164.2 ± 13.2 ng/mL
- plasma GH ([2]; i.v. 600 μg/kg, 30 min): 54.5 ± 13.3 ng/mL
- plasma GH ([2]; i.v. 600 μg/kg, time 0 min (before injection)): 18.4 ± 4.3 ng/mL
- effect on plasma GH concentrations ([2]; i.v. 150, 300 and 600 μg/kg, 10 and 20 minutes after administration): significant increases
- plasma GH ([3]; s.c. 150 μg/kg, 10 min): 107.1 ± 17.7 ng/mL
- plasma GH ([3]; s.c. 150 μg/kg, 20 min): 156.6 ± 18.7 ng/mL
- plasma GH ([3]; s.c. 150 μg/kg, 30 min): 86.0 ± 18.9 ng/mL
- plasma GH ([3]; s.c. 150 μg/kg, time 0 min (before injection)): 12.0 ± 4.0 ng/mL
- plasma GH ([3]; s.c. 300 μg/kg, 10 min): 80.6 ± 11.0 ng/mL
- plasma GH ([3]; s.c. 300 μg/kg, 20 min): 171.7 ± 22.0 ng/mL
- plasma GH ([3]; s.c. 300 μg/kg, 30 min): 102.7 ± 17.0 ng/mL
- plasma GH ([3]; s.c. 300 μg/kg, time 0 min (before injection)): 12.0 ± 4.0 ng/mL
- plasma GH ([3]; s.c. 600 μg/kg, 10 min): 90.7 ± 16.6 ng/mL
- plasma GH ([3]; s.c. 600 μg/kg, 20 min): 187.5 ± 15.4 ng/mL
- plasma GH ([3]; s.c. 600 μg/kg, 30 min): 115.3 ± 19.1 ng/mL
- plasma GH ([3]; s.c. 600 μg/kg, time 0 min (before injection)): 23.0 ± 6.0 ng/mL
- effect on plasma GH, comparison with GHRP-6 ([3]; s.c. 150, 300 and 600 μg/kg, 10, 20 and 30 minutes): more effective than GHRP-6 at all the considered times
- GH in medium ([4]; 10^-6 M): 558.0 ± 19.1 ng/well
- GH in medium ([4]; 10^-7 M): 589.1 ± 17.9 ng/well
- GH in medium ([4]; 10^-8 M): 557.8 ± 15.9 ng/well
- GH secretion versus basal ([4]; 10^-8 to 10^-6 M, two hours): stimulation of GH secretion over basal secretion
- hydrophobicity compared with GHRP-6 [5]: greater hydrophobicity than GHRP-6
- Dead rats/Total N° of rats per group ([6]; single i.v. dose 5.0 mg/kg): 0/6
- Dead rats/Total N° of rats per group ([6]; single i.v. dose 7.5 mg/kg): 1/6
- Dead rats/Total N° of rats per group ([6]; single i.v. dose 10 mg/kg): 2/6
- toxicity compared with GHRP-6 ([6]; single i.v. dose, mortality): less toxic than GHRP-6
- activity as Growth Hormone releaser [7]: very active
- GH ([7]; sacrificed 15 minutes after injection): 201 ng/mL
- Mean GH [8, 9]: 235 ± 21 ng/mL
- Peak GH [8, 9]: 552 ± 59 ng/mL
- GH AUC ([8]; i.v. 25 μg/kg peptide, thirty minutes following injection, pooled over antiserum pretreatments): 7366 ± 912 ng/ml/30 min
- overall GH response compared with GHRP-6 ([8]; i.v. 25 μg/kg, pooled results): more effective in eliciting a higher mean GH response as compared to GHRP-6
